Several values for one entry are separate records, joined by “and”; a condition that tells them apart may be missing. Identical values can stand only once. One block for each compound: values may come before it.
Experiments:
ERβ = biological target: T1, ERβ (Homo sapiens, UniProt Q92731); assay: ER reporter gene assay in HEK 293 T cells (ER-luciferase reporter); type: cell-based; details: for Reporter gene assay raw data, ERb: ERb data block (head r19), 4 replicate columns; for ERb reporter gene assay raw data (response): four replicate columns per compound
T1 construct: expressed in transfected cells; host or cells: HEK 293 T cells
T1 sequence (Q92731 whole entry, species assumed): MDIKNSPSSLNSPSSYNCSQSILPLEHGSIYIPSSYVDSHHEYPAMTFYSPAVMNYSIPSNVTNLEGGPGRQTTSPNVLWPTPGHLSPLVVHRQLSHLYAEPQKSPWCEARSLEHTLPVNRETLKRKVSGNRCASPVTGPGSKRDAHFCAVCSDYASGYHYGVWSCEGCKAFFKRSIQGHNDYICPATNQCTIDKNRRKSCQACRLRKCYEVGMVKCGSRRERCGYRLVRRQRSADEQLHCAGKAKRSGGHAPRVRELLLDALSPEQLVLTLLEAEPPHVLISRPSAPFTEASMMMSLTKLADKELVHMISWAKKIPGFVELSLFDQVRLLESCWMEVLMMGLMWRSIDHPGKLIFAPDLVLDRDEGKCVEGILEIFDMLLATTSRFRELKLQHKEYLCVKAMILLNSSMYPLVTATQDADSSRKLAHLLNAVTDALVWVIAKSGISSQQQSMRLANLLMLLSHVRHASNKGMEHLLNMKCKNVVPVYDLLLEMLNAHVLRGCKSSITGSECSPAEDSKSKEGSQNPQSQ

ERα = biological target: T2, ERα (Homo sapiens, UniProt P03372); assay: as above; type: cell-based; details: for Reporter gene assay raw data, ERa: 4 replicate columns
T2 construct: expressed in transfected cells; host or cells: HEK 293 T cells
T2 sequence (P03372 1-595): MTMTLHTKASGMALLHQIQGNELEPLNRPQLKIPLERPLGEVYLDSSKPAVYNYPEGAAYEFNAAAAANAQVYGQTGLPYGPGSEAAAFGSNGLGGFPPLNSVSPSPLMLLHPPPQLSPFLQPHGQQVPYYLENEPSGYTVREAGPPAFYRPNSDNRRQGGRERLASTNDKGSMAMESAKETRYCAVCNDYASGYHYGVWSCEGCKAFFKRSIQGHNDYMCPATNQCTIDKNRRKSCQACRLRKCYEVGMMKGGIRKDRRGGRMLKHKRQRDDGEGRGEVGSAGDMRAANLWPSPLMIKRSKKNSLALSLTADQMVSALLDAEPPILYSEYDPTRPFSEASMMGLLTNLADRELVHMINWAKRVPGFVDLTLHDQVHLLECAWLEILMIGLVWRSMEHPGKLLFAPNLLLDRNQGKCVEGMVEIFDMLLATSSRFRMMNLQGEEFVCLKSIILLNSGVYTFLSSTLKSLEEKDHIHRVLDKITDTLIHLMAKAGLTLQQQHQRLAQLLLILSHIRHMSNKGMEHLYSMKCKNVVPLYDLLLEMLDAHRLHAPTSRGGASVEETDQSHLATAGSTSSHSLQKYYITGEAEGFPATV

Reporter gene assay raw data, ERb (ERβ; Log M -7.4318): 88.9611 and 107.81 and 89.4793
ERb reporter gene assay raw data (response) (ERβ; Log M -9.34008): 83.69 and 95.3591 and 88.894 and 92.378
ERb reporter gene assay raw data (response) (ERβ; Log M -10.7721): 27.7709 and 32.5606 and 30.8658
Reporter gene assay raw data, ERb (ERβ; Log M -11.248): 7.1742 and 11.1236 and 8.004 and 9.347
ERb reporter gene assay raw data (response) (ERβ; Log M -11.248): 5.759 and 5.232 and 4.796 and 6.634
SMILES: C[C@]12CC[C@@H]3c4ccc(O)cc4CC[C@H]3[C@@H]1CC[C@@H]2O [Compound E2, estradiol]
Reporter gene assay raw data, ERb (ERβ; Log M -6): 88.8232 and 101.64 and 110.514 and 90.7218
ERb reporter gene assay raw data (response) (ERβ; Log M -6): 84.0609 and 88.7479 and 111.697 and 94.4619
Reporter gene assay raw data, ERb (ERβ; Log M -6.47756): 97.0869 and 99.8524 and 105.457 and 96.3817
ERb reporter gene assay raw data (response) (ERβ; Log M -6.47756): 91.3063 and 103.043 and 96.9565 and 108.694
Reporter gene assay raw data, ERb (ERβ; Log M -6.95468): 101.657 and 108.929 and 91.071 and 98.3432
ERb reporter gene assay raw data (response) (ERβ; Log M -6.95468): 85.5094 and 93.8773 and 82.9145 and 86.4119
ERb reporter gene assay raw data (response) (ERβ; Log M -7.4318): 92.1619 and 99.8727 and 93.6976 and 98.6683
Reporter gene assay raw data, ERb (ERβ; Log M -7.91009): 87.7241 and 103.45 and 96.1824 and 92.6694
ERb reporter gene assay raw data (response) (ERβ; Log M -7.91009): 89.9017 and 89.3359 and 90.9076 and 106.617
Reporter gene assay raw data, ERb (ERβ; Log M -8.3851): 90.4631 and 100.397 and 90.4263 and 91.0339
ERb reporter gene assay raw data (response) (ERβ; Log M -8.3851): 91.9536 and 86.2134 and 78.7089 and 97.5579
Reporter gene assay raw data, ERb (ERβ; Log M -8.86328): 79.9036 and 104.483 and 99.1546 and 93.2724
ERb reporter gene assay raw data (response) (ERβ; Log M -8.86328): 95.1963 and 89.1365 and 87.1229 and 89.1607
Reporter gene assay raw data, ERb (ERβ; Log M -9.34008): 95.3149 and 101.905 and 91.5426 and 83.1517
Reporter gene assay raw data, ERb (ERβ; Log M -9.81816): 104.147 and 95.8332 and 93.5201 and 92.5995
ERb reporter gene assay raw data (response) (ERβ; Log M -9.81816): 83.8842 and 77.8861 and 83.3564 and 89.1956
Reporter gene assay raw data, ERb (ERβ; Log M -10.2941): 77.6845 and 76.952 and 81.0679 and 77.2912
ERb reporter gene assay raw data (response) (ERβ; Log M -10.2941): 80.3017 and 74.375 and 74.4575 and 76.8278
Reporter gene assay raw data, ERb (ERβ; Log M -10.7721): 31.1486 and 35.6178 and 35.7979 and 36.2215
ERb reporter gene assay raw data (response) (ERβ; Log M -13): -0.5566 and 0.8119 and -0.8119 and 0.5566

Reporter gene assay raw data, ERa (ERα; Log M -9.81816, first ERa data block (head r2)): 8.154 and 4.486 and 4.8306 and 4.983
Reporter gene assay raw data, ERa (ERα; Log M -9.81816, second ERa data block (head r34)): 6.6406 and 6.967 and 4.962 and 7.591
Reporter gene assay raw data, ERa (ERα; Log M -10.2941, first ERa data block (head r2)): 3.132 and 9.724 and 4.561 and 11.8118
Reporter gene assay raw data, ERa (ERα; Log M -10.2941, second ERa data block (head r34)): 3.775 and 13.8366 and 4.292 and 12.8533
Reporter gene assay raw data, ERa (ERα; Log M -10.7721, first ERa data block (head r2)): 1.451 and 1.5656 and -0.4526 and 1.85
Reporter gene assay raw data, ERa (ERα; Log M -10.7721, second ERa data block (head r34)): -0.2019 and 1.235 and 0.142 and 1.333
Reporter gene assay raw data, ERa (ERα; Log M -11.248, second ERa data block (head r34)): -0.9111 and -0.3248 and 1.487 and 1.068
ERa reporter gene assay raw data (response) (ERα; Log M -13, four replicate columns per compound): 0.8253 and -0.8253 and 1.478 and -1.478
SMILES: Oc1ccc([C@@H]2Oc3ccc(O)cc3[C@@H]3CCC[C@@H]32)cc1 [LY500307]
Reporter gene assay raw data, ERa (ERα; Log M -6, first ERa data block (head r2)): 95.3498 and 76.8258 and 78.8468 and 79.4968
Reporter gene assay raw data, ERa (ERα; Log M -6, second ERa data block (head r34)): 84.2897 and 88.4184 and 89.8518 and 82.7548
Reporter gene assay raw data, ERa (ERα; Log M -6.47756, first ERa data block (head r2)): 81.0788 and 76.9627 and 81.3158 and 77.2241
Reporter gene assay raw data, ERa (ERα; Log M -6.47756, second ERa data block (head r34)): 83.7373 and 79.8906 and 79.6354 and 82.4556
Reporter gene assay raw data, ERa (ERα; Log M -6.95468, first ERa data block (head r2)): 64.5612 and 69.8569 and 66.3267 and 71.602
Reporter gene assay raw data, ERa (ERα; Log M -6.95468, second ERa data block (head r34)): 71.7534 and 71.241 and 72.7885 and 70.2307
Reporter gene assay raw data, ERa (ERα; Log M -7.4318, first ERa data block (head r2)): 51.8548 and 63.5801 and 59.7283 and 55.8203
Reporter gene assay raw data, ERa (ERα; Log M -7.4318, second ERa data block (head r34)): 63.921 and 68.3671 and 59.0742 and 56.656
Reporter gene assay raw data, ERa (ERα; Log M -7.91009, first ERa data block (head r2)): 45.1889 and 57.478 and 50.9227 and 51.1094
Reporter gene assay raw data, ERa (ERα; Log M -7.91009, second ERa data block (head r34)): 50.9317 and 49.5895 and 46.336 and 52.0394
Reporter gene assay raw data, ERa (ERα; Log M -8.3851, first ERa data block (head r2)): 49.7552 and 47.0158 and 40.3598 and 42.6852
Reporter gene assay raw data, ERa (ERα; Log M -8.3851, second ERa data block (head r34)): 51.0127 and 45.6306 and 44.3415 and 46.4772
Reporter gene assay raw data, ERa (ERα; Log M -8.86328, first ERa data block (head r2)): 31.993 and 35.5083 and 37.6374 and 35.7027
Reporter gene assay raw data, ERa (ERα; Log M -8.86328, second ERa data block (head r34)): 42.4323 and 38.564 and 35.9099 and 35.545
Reporter gene assay raw data, ERa (ERα; Log M -9.34008, first ERa data block (head r2)): 17.3101 and 15.2621 and 18.8474 and 18.6811
Reporter gene assay raw data, ERa (ERα; Log M -9.34008, second ERa data block (head r34)): 21.5928 and 20.6886 and 16.8312 and 20.0407
Reporter gene assay raw data, ERa (ERα; Log M -11.248, first ERa data block (head r2)): -0.6879 and -0.2253 and -0.584 and 0.4876
